Several values for one entry are separate records, joined by “and”; a condition that tells them apart may be missing. Equal entries are not always repeated. Where two headings read alike, the source gives them in different places.
Experiments:
[1] = In vitro release (dialysis bag method) and release kinetics modelling; format: physicochemical
Method: The release medium was phosphate-buffered saline, prepared according to pharmacopeial standards and consisting of 0.02% KCl (w/v), 0.02% KH2PO4 (w/v), 0.116% Na2HPO4 (w/v), and 0.8% NaCl (w/v) (adjusted with 10 mM NaOH, pH 7.4) ([Anvisa, 2019]).
The dialysis bags containing CUR-loaded NCs were immersed in the phosphate-buffered saline medium at 37 °C with horizontal shaking at 50 rpm.
At predetermined intervals, 2 mL of the medium was withdrawn for analysis with a UV spectrophotometer (UV-1800, Shimadzu, Japan) at 427 nm. The experiments were conducted in triplicate (n = 3), with results reported as the percentage of drug released over time.
Evaluated models included zero-order (Equation 1), monoexponential (Equation 2), bi-exponential (Equation 3), Weibull (Equation 4), and Higuchi (Equation 5). F=k0·t (1) F=100 ·1−e^−k1·t (2) F=100·1−Ae^−αt+Be^−βt (3) F=100·1−e^−t^β/α (4) F=kH·t^0.5 (5) where F is the percentage of drug released at time t (h), k 0 is the zero-order release constant (h^−1), k 1 is the first-order release constant (h^−1), A and B represent the fractions of drug distributed in different phases, and α and β (h^−1) are the specific kinetic rate constants. k H represents the Higuchi release constant.
The drug release mechanism was further evaluated by fitting the data to the Peppas-Sahlin (Equation 6) and Korsmeyer-Peppas (Equation 7) models: F=k1· t^0.5+k2 ·t (6) F=kKP·t^n (7) where k 1 is the constant (h^−1) denoting the relative contribution of t ^0.5 dependent drug diffusion to drug release, k 2 is the constant (h^−1) denoting the relative contribution of t-dependent polymer relaxation to drug release, k KP is the kinetic constant of the Korsmeyer-Peppas model, and n is the diffusion exponent that indicates the drug transport mechanism.
The release profiles were plotted and fitted using different in vitro release models. The results of the in vitro drug release study were evaluated based on dissolution efficiency and independent/dependent kinetic models. Model selection was performed considering the highest correlation coefficient (R ^2) and the Akaike Information Criterion (AIC) ([Vieira et al., 2016]).

[2] = Stability of CUR in spiked S1 flies (whole-body fly homogenate supernatant); format: in vitro ADME, D. melanogaster
Method: (§1) This homogenate was prepared by weighing 0.02 g of whole flies, followed by adding 600 µL of acetonitrile and homogenizing with an Ultra-Turrax (T10, GmbH, Germany) for 30 s at 28,800 rpm. The mixture was centrifuged at 14,000 rpm for 10 min at 4 °C to obtain the whole-body fly homogenate supernatant (S1). Subsequently, 90 µL of S1 was spiked with 10 µL of each calibration standard and 10 µL of the IS. Deproteinization was achieved by adding 1,000 µL of acetonitrile and 10 µL of 0.2% HCl. The mixtures were vortexed for 5 min, then centrifuged at 14,000 rpm for 10 min at 4 °C. The supernatant was separated, evaporated to dryness using a centrifugal vacuum concentrator at 45 °C for 60 min, and the residue reconstituted in 100 µL of mobile phase.
(§2) Stability tests were performed under identical conditions for both matrices: room temperature for 6 h (22 °C ± 3 °C), in the autosampler for up to 24 h (22 °C ± 3 °C), after 60 days in a freezer (−80 °C ± 2 °C), and across three freeze-thaw cycles, with each thawing period at room temperature for approximately 2 h and refreezing for 12 h at −20 °C. For each species, three replicates at concentrations of 3 and 150 ng/mL were tested.
(§3) Samples were deemed stable if the results fell within the acceptable limits of accuracy (±15% of nominal concentration) and precision (±15% CV). For the LLOQ, the CV was not to exceed 20% ([FDA, 2018]; [ICH, 2019]).

[3] = Stability of CUR in spiked rat plasma; format: in vitro ADME; settings: Plasma rats
Method: The rat plasma extraction was processed similarly to that of the flies, with 10 µL of each calibration standard sample mixed with 90 µL of blank rat plasma and 10 µL of the IS, followed by deproteinization with acetonitrile.
as §2, §3

[4] = Fly whole-body CUR quantification after 10-day dietary exposure, healthy flies; format: in vivo, D. melanogaster; settings: both sexes, Drosophila melanogaster, whole-body homogenate, oral, 110 ng/mL in food medium for 10 days
Method: as §1
Adult healthy flies (1–3 days old) of both sexes were used, with each group consisting of 25 males and 25 females (n = 6 replicates/50 flies each). […] The medium was replaced every 3 days. The dosing and study design were based on our previous study ([Fernandes et al., 2023]).

[5] = Fly whole-body CUR quantification, lipopolysaccharide-induced inflammation; format: in vivo, D. melanogaster; settings: LPS 250 μg/mL in food medium + 37 ng/mL for 10 days
Method: as §1

[6] = Pharmacokinetic study in rodents (non-compartmental analysis); format: in vivo, Wistar rats
Method: As described in our previous study, the NC-CUR was prepared via the interfacial deposition method of preformed polymers, ensuring the same final concentration ([Santos et al., 2021]). […] For the oral administration groups, blood sampling began 0.25 h post-gavage (Figure 1B). […] Pharmacokinetic parameters were calculated using non-compartmental analysis with PKanalix 2023R1 software (Lixoft, France). Plasma concentration-time profiles for each experimental group were analyzed individually.

[7] = ref Nakama et al., 2020; cited from earlier work
[8] = set-up: method as in Yang et al., 2007; settings: rats; 500 mg kg; ref Yang et al., 2007; cited from earlier work
[9] = set-up: method as in Wang et al., 2018; settings: mice; intravenous administration of 20 mg kg; ref Wang et al., 2018; cited from earlier work
healthy flies = system: healthy flies; set-up: method as in Fernandes et al., 2023; settings: ref Fernandes et al., 2023; cited from earlier work
[10] = nominal 3 ng/mL, 6 h (bench-top)
[11] = nominal 3 ng/mL, 24 h 6 h (bench-top)
[12] = nominal 3 ng/mL, Freeze-thaw cycles
[13] = nominal 150 ng/mL, 6 h (bench-top)
[14] = nominal 150 ng/mL, 24 h (autosampler)
[15] = nominal 150 ng/mL, 60 d (−80 °C)
[16] = nominal 150 ng/mL, Freeze-thaw cycles
[17] = male, Wistar, rat, plasma, iv, 2 mg/kg, Intravenous 2 mg/kg
[18] = male, Wistar, rat, plasma, Intravenous 2 mg/kg
[19] = male, Wistar, rat, plasma, Oral 6 mg/kg

COc1cc(/C=C/C(=O)CC(=O)/C=C/c2ccc(O)c(OC)c2)ccc1O [CUR, Curcumin]
B ([1]; Biexponencial model): 11.93 ± 2.50
α ([1]; Biexponencial model): 0.15 ± 0.02 h⁻¹
β ([1]; Biexponencial model): 0.17 ± 0.01 h⁻¹
A ([1]; Biexponencial model (chosen model), PBS pH 7.4): 78.99 ± 2.50
kH ([1]; Higuchi model): 18.05 ± 0.07 h⁻¹
k ([1]; Monoexponencial model, PBS pH 7.4): 0.14 ± 0.00 h⁻¹
α ([1]; Weibull model): 4.73 ± 0.06 h⁻¹
β ([1]; Weibull model): 0.82 ± 0.01 h⁻¹
k 0 ([1]; Zero order model, PBS pH 7.4): 2.57 ± 0.01 h⁻¹
drug released ([1]; at 6 h): 56.09%
drug released ([1]; at 12 h): 97.69% and ~100%
Accuracy [2, 10]: 84.45%
Mean ± SD [2, 10]: 2.74 ± 0.39 ng/mL
Accuracy [2, 11]: 114.19%
Mean ± SD [2, 11]: 3.23 ± 0.24 ng/mL
Accuracy ([2]; nominal 3 ng/mL, 60 d (−80 °C)): 103.03%
Mean ± SD ([2]; nominal 3 ng/mL, 60 d (−80 °C)): 3.09 ± 0.26 ng/mL
Accuracy [2, 12]: 106.81%
Mean ± SD [2, 12]: 3.20 ± 0.27 ng/mL
Accuracy [2, 13]: 94.59%
Mean ± SD [2, 13]: 144.26 ± 4.68 ng/mL
Accuracy [2, 14]: 89.72%
Mean ± SD [2, 14]: 142.32 ± 4.62 ng/mL
Accuracy [2, 15]: 98.39%
Mean ± SD [2, 15]: 147.59 ± 16.88 ng/mL
Accuracy [2, 16]: 95.99%
Mean ± SD [2, 16]: 143.99 ± 13.47 ng/mL
Mean ± SD [3, 10]: 2.58 ± 0.04 ng/mL
Accuracy [3, 11]: 98.08%
Mean ± SD [3, 11]: 2.94 ± 0.19 ng/mL
Accuracy ([3]; nominal 3 ng/mL, 60 d (−80 °C)): 86.28%
Mean ± SD ([3]; nominal 3 ng/mL, 60 d (−80 °C)): 2.58 ± 0.05 ng/mL
Accuracy [3, 12]: 86.23%
Mean ± SD [3, 12]: 2.58 ± 0.04 ng/mL
Accuracy [3, 13]: 99.1%
Mean ± SD [3, 13]: 148.64 ± 1.35 ng/mL
Accuracy [3, 14]: 99.84%
Mean ± SD [3, 14]: 149.75 ± 0.92 ng/mL
Accuracy [3, 15]: 98.84%
Mean ± SD [3, 15]: 148.26 ± 0.17 ng/mL
Accuracy [3, 16]: 99.1%
Mean ± SD [3, 16]: 148.64 ± 1.35 ng/mL
concentration at 10 days [4]: ~75 ng/mL
CUR concentration in whole-body homogenates [5]: markedly reduced CUR levels
kel ([6]; Intravenous 2 mg/kg): 0.75 h−¹
CL ([6]; Intravenous 2 mg/kg, 2 mg/kg): 7.71 L/h
t1/2 ([6]; Intravenous 2 mg/kg, 2 mg/kg): 1.17 h
AUC0-∞ ([6]; Intravenous 2 mg/kg, male Wistar rats, n = 9, 2 mg/kg): 100.41 ng·h/mL
kel ([6]; Oral 6 mg/kg): 0.54 h−¹
clearance [6, 17]: 125 mL/min
half-life [6, 17]: 1.77 ± 0.45 h
AUC(0-inf) ([6]; male, Wistar, rat, plasma, iv, 2 mg/kg, Intravenous 2 mg/kg, male Wistar rats, n = 9): 100 ± 24.4 ng·h/mL
half-life ([6]; male, Wistar, rat, plasma, po, 6 mg/kg, Oral 6 mg/kg): 1.7 h
AUC(0-inf) ([6]; male, Wistar, rat, plasma, po, 6 mg/kg, Oral 6 mg/kg, male Wistar rats, n = 12): 25.6 ng·h/mL
Cmax [6, 18]: 231 ng/mL
MRT [6, 18]: 0.79 h
Vd [6, 18]: 12.8 L
Cmax [6, 19]: 8.04 ng/mL
MRT [6, 19]: 3 h
Tmax [6, 19]: 1.31 h
bioavailability ([6]; male, Wistar, rat, plasma, Oral 6 mg/kg vs intravenous 2 mg/kg, read-out: Fabs (absolute bioavailability)): 8.48%
Log P [7]: ~3.2
oral bioavailability (administered dose absorbed) [8]: about 1%
half-life [9]: approximately 32.4 min
concentrations producing increased survival and enhanced antioxidant defenses (healthy flies): above 300 μM
